Counter-ions that a name gives are not always drawn.
What was measured:
DPP-IV = target: T1, DPP-IV (Homo sapiens, UniProt P27487); assay: Caco-2 DPP-IV Assay (inhibition of DPP-IV activity from human colonic carcinoma cell extracts); type: biochemical; conditions: Caco-2 cell extract, substrate H-Alanine-Proline-pNA, 8-point dose-response curves
T1 construct: The assay is conducted by adding 20 µg solubilized Caco-2 protein; host or cells: Caco-2 (differentiated), NP-40 solubilized cell extract
Description: The human colonic carcinoma cell line Caco-2 was obtained from the American Type Culture Collection (ATCC HTB 37). Differentiation of the cells to induce DPP-IV expression was accomplished as described by Reisher, et al. in an article entitled "Increased expression of intestinal cell line Caco-2" in Proc. Natl. Acad. Sci., Vol. 90, pgs. […] Cell extract is prepared from cells solubilized in 10mM Tris HCI, 0.15 M NaCl, 0.04 t.i.u.aprotinin, 0.5% nonidet-P40, pH 8.0, which is centrifuged at 35,000 g for 30 min. at 4 °C. to remove cell debris. The assay is conducted by adding 20 µg solubilized Caco-2 protein, diluted to a final volume of 125 µl in assay buffer (25 mM Tris HCI pH 7.4, 140mM NaCl, 10 mM KCI, 1% bovine serum albumin) to microtiter plate wells. After a 60 min. incubation at room temperature, the reaction is initiated by adding 25 µl of 1 mM substrate (H-Alanine-Proline-pNA; pNA is p-nitroaniline). […] A standard curve of free p-nitroaniline is generated using 0-500 µM solutions of free pNA in assay buffer. The curve generated is linear and is used for interpolation of substrate consumption (catalytic activity in nmoles substrate cleaved /min).
The potency of the test compounds as DPP-IV inhibitors, expressed as IC50, is calculated from 8-point, dose-response curves using a 4-parameter logistic function.

human plasma DPP-IV = target: T2, human plasma DPP-IV (Homo sapiens, UniProt P27487); assay: DPP-IV activity in human plasma (modified Kubota assay); type: biochemical; conditions: substrate H-Glycine-Proline-AMC, 8-point dose-response curves
T2 construct: from tissue; host or cells: human plasma
Description: (§1) Briefly, 5 µl of plasma are added to 96-well flat-bottom micortiter plates (Falcon), followed by the addition of 5 µl of 80 mM MgCl2 in incubation buffer (25 mMHEPES, 140 mM NaCl, 1% RIA-grade BSA, pH 7.8). After a 60 min. incubation at room temperature, the reaction is initiated by the addition of 10 µl of incubation buffer containing 0.1 mM substrate (H-Glycine-Proline-AMC; AMC is 7-amino-4-methylcoumarin). The plates are covered with aluminum foil (or kept in the dark) and incubated at room temperature for 20 min. […] A fluorescence-concentration curve of free AMC is generated using 0-50 µM solutions of AMC in assay buffer. The curve generated is linear and is used for interpolation of substrate consumption (catalytic activity in nmoles substrate cleaved/min). As with the previous assay, the potency of the test compounds as DPP-IV inhibitors, expressed as IC50, is calculated from 8-point, dose-response curves using a 4 parameter logistic function.

rat plasma DPP-IV = target: T3, rat plasma DPP-IV (Rattus norvegicus, UniProt P14740); assay: DPP-IV activity in rat plasma (modified Kubota assay); type: biochemical; conditions: substrate H-Glycine-Proline-AMC, 8-point dose-response curves
T3 construct: from tissue; host or cells: rat plasma
Description: as §1

plasma DPP-IV = target: T4, plasma DPP-IV (Rattus norvegicus, UniProt P14740); assay: Plasma DPP-IV activity after oral dosing in insulin resistant rats (oral glucose challenge study); type: in vivo, Male Sprague-Dawley rats; conditions: 10 µmol/kg orally, ten minutes prior to glucose (1 g/kg p.o.), n=7-8, read-out: inhibition of plasma DPP-IV activity during the study
T4 construct: from tissue; host or cells: plasma of male Sprague-Dawley rats dosed orally (in vivo / ex vivo read-out)
Excerpt: (§2) More specifically, for example, the compounds of formula 1, and their corresponding pharmaceutically acceptable acid addition salts, improve early insulin response to an oral glucose challenge and, therefore, are useful in treating non-insulin-dependent diabetes mellitus. The ability of the compounds of formula I, and their corresponding pharmaceutically acceptable acid addition salts, to improve early insulin response to an oral glucose challenge may be measured in insulin resistant rats according to the following method:
(§3) Male Sprague-Dawley rats that had been fed a high fat diet (saturated fat = 57% calories) for 2-3 weeks were fasted for approximately 2 hours on the day of testing, divided into groups of 7-10, and dosed orally with 10 µmol/kg of test compound in carboxymethylcellulose. […] Blood samples, obtained at various time-points from chronic jugular vein catheters, were analyzed for plasma glucose concentration. Data are expressed as % decrease of the area under the plasma glucose curve compared to vehicle-treated control animals.

[1] = Oral glucose challenge in insulin resistant high fat fed rats: plasma glucose excursion; type: in vivo, Male Sprague-Dawley rats; conditions: 10 µmol/kg orally; glucose 1 g/kg p.o.; % decrease of area under the plasma glucose curve compared to vehicle-treated control animals
Excerpt: as §2, §3

T2 sequence (P27487 39-766 limits assumed): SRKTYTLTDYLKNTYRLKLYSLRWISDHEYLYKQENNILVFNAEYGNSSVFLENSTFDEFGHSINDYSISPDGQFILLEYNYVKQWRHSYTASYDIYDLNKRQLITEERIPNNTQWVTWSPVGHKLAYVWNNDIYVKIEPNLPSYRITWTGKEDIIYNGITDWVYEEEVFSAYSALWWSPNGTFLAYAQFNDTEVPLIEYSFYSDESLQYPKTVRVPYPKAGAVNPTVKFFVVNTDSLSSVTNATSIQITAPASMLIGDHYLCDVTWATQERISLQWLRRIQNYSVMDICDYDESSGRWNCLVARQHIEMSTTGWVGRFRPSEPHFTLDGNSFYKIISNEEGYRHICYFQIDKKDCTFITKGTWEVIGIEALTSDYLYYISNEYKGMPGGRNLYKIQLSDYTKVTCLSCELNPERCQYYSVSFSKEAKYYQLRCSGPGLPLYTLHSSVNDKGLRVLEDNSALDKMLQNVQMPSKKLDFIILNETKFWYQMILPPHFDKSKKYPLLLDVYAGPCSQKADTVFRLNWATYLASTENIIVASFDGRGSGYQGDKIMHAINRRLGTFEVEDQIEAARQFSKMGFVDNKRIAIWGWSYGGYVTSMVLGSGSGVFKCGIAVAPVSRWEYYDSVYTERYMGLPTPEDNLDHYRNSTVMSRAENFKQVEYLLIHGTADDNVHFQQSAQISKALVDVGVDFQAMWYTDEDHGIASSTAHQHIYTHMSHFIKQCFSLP
T3 sequence (P14740 37-767 limits assumed): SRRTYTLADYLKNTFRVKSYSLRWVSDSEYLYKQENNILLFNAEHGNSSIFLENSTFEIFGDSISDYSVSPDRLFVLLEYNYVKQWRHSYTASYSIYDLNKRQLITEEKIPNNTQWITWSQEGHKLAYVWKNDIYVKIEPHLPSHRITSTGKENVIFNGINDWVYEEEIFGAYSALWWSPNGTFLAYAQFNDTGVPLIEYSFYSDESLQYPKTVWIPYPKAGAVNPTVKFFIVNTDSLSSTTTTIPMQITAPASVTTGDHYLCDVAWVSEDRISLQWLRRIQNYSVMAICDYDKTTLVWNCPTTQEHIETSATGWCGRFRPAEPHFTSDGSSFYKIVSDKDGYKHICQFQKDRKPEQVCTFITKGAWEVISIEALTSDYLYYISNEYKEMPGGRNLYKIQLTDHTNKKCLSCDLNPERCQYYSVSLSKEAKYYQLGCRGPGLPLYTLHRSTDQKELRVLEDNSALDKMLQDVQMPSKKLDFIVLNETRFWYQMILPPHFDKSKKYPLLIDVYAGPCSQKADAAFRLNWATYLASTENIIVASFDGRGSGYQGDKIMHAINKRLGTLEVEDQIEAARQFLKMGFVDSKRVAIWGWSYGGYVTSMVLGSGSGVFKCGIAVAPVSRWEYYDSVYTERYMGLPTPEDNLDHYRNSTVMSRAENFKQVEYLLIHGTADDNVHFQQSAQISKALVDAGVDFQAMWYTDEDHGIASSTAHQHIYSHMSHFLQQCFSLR
T1 sequence (P27487 whole entry): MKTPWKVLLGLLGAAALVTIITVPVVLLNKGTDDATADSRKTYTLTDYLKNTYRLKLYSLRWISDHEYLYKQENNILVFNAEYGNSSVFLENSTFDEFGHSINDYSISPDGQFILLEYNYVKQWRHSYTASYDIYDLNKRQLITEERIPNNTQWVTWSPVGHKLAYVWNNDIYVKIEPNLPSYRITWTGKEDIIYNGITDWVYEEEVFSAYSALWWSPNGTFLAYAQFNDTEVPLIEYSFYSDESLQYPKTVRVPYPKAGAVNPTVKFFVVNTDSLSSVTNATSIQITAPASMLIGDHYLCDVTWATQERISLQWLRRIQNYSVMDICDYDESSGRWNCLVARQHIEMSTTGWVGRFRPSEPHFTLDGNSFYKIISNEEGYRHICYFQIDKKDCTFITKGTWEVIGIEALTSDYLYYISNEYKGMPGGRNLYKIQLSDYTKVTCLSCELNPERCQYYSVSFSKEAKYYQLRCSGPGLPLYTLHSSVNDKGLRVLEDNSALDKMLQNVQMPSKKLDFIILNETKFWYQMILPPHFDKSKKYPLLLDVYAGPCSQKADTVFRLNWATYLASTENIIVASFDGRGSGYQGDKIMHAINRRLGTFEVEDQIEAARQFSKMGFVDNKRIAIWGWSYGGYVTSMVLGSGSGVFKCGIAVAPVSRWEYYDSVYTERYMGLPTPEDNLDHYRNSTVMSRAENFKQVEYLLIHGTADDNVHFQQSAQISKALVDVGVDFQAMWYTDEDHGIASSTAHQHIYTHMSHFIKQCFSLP
T4 sequence (P14740 37-767 limits assumed): as the sequence (P14740 37-767 limits assumed) above

| Compound | IC50 (DPP-IV) | IC50 (human plasma DPP-IV) | IC50 (rat plasma DPP-IV) | inhibition at 10 µmol/kg (plasma DPP-IV) | Decrease of plasma glucose excursion at 10 µmovkg (p=0.01) [1] |
| --- | --- | --- | --- | --- | --- |
| CC(C)(CNc1ccc(Cl)cn1)NCC(=O)N1CCC[C@H]1C#N [Ex. 1, 1-[[[2-[(5-Chloro-2-pyridinyl)amino]-1,1-dimethylethyl]amino]acetyl]-2-cyano-(S)-pyrrolidine, monohydrochloride] | 2 nM | 30 nM | 6 nM | – | – |
| N#C[C@@H]1CCCN1C(=O)CNC1CCC(Oc2ccc(C(F)(F)F)cc2)CC1 (stereo partly drawn) [Ex. 2EE, 1-[[[4-[4-(trifluoromethyl)phenoxy]cyclohexyl]amino]acetyl]-2-cyano-(S)-pyrrolidine, monohydrochloride] | 23 nM | 150 nM | 46 nM | – | – |
| N#C[C@@H]1CCCN1C(=O)CNC1CCC(NS(=O)(=O)c2ccccc2)CC1 (stereo partly drawn) [Ex. 2M, 1-[[[4-[(phenylsulfonyl)amino]cyclohexyl]amino]acetyl]-2-cyano-(S)-pyrrolidine, monohydrochloride] | 34 nM | 10 nM | 6 nM | – | – |
| N#C[C@@H]1CCCN1C(=O)CNC1CCC(NC(=O)c2ccccc2)CC1 (stereo partly drawn) [Ex. 2N, 1-[[[4-(benzoylamino)cyclohexyl]amino]acetyl]-2-cyano-(S)-pyrrolidine] | 5 nM | 10 nM | 5 nM | 80% | 39% |
| N#C[C@@H]1CCCN1C(=O)CNC1CCC(Nc2ccnc(Cl)n2)CC1 (stereo partly drawn) [Ex. 2S, 1-[[[4-[(2-chloro-4-pyrimidinyl)amino]cyclohexyl]amino]acetyl]-2-cyano-(S)-pyrrolidine, dihydrochloride] | 3 nM | 4 nM | 2 nM | – | – |
| CC(C)(C)C(=O)NC1CCC(NCC(=O)N2CCC[C@H]2C#N)CC1 (stereo partly drawn) [Ex. 2U, 1-[[[4-[(2,2-dimethyl-1-oxopropyl)amino]cyclohexyl]amino]acetyl]-2-cyano-(S)-pyrrolidine, monohydrochloride] | 39 nM | 27 nM | 14 nM | – | – |
| N#Cc1ccc(NC2CCC(NCC(=O)N3CCC[C@H]3C#N)CC2)cc1 (stereo partly drawn) [Ex. 2W, 1-[[[4-[(4-cyanophenyl)amino]cyclohexyl]amino]acetyl]-2-cyano-(S)-pyrrolidine, dihydrochloride] | 13 nM | 19 nM | 7 nM | – | – |
| N#C[C@@H]1CCCN1C(=O)CNC1CCC(Nc2nc3cc(Cl)ccc3s2)CC1 (stereo partly drawn) [Ex. 2Y, 1-[[[4-[(5-chloro-2-benzothiazolyl)amino]cyclohexyl]amino]acetyl]-2-cyano-(S)-pyrrolidine, dihydrochloride] | 12 nM | 124 nM | 37 nM | – | – |
| N#C[C@@H]1CCCN1C(=O)CNC1CCN(S(=O)(=O)c2ccc(Cl)cc2)CC1 [Ex. 3, 1-[[[1-[(4-Chlorophenyl)sulfonyl]-4-piperidinyl]amino]acetyl]-2-cyano-(S)-pyrrolidine, monohydrochloride] | 124 nM | 204 nM | 107 nM | – | – |

— patent EP1296974B1, “2-CYANOPYRROLIDINE DERIVATIVES AND THEIR USE AS MEDICAMENTS” (NOVARTIS AG, priority 2000, dated 2001)
